Data reported in patent US20240336608A1, “IL4I1 INHIBITORS AND METHODS OF USE” (Merck Sharp & Dohme LLC, priority 2023, published 2024).

Molecular target: T1, recombinant IL4I1 (Homo sapiens, UniProt Q96RQ9)
T1 construct: purchased R&D Systems 5684-AO-020
T1 sequence (Q96RQ9 22-567): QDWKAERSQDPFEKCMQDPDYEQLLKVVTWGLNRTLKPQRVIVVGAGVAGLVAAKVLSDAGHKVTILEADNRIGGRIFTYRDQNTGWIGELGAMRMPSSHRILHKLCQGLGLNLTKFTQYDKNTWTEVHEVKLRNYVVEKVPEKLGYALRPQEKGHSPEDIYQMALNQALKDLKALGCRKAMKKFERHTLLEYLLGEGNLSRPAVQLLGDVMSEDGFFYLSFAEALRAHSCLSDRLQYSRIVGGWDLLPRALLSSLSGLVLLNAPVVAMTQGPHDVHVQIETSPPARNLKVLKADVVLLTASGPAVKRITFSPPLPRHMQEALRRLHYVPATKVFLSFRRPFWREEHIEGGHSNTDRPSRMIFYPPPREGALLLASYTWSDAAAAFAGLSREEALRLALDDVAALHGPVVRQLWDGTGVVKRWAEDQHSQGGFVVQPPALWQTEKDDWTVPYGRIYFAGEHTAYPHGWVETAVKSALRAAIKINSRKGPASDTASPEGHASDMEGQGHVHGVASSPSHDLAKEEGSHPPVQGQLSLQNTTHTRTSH
Experiment: IL4I1 Enzymatic Assay (Amplex Red/HRP coupled detection of H2O2, fluorescence)
Type: biochemical
Conditions: 1 nM recombinant IL4I1; four-hour pre-incubation with compound; 1 mM each Phe, Tyr, Trp; ten-point titration
Description: Interleukin 4 inducible protein 1 (IL4I1) is an L-amino oxidase that catalyzes the oxidation of aromatic residues (Phe, Trp and Tyr): L-amino acid+H2O+O2→2-oxo acid+NH3+H2O2. Equal molar of H2O2 and the corresponding alpha-ketoacid are produced when IL4I1 and substrate are added. In this assay, the hydrogen peroxide generated by IL4I1 is then detected through a coupled reaction with Amplex Red (10-acetyl-3,7-dihydroxyphenoxazine) and […] (HRP) to produce Resorufin product that could be detected in the form of fluorescence signals. The assessment of the inhibitory effect of small molecules (EC50) on IL4I1 is measured by the effectiveness of the compounds to inhibit the production of H202.
Using this assay, the potency (EC50) of each compound was determined from a ten-point (1:3 serial dilution) titration curve using the following outlined procedure. To each well of a black flat-bottom Greiner (Cat #781076) 384 well-plate, 125 nL of compound (0.5% DMSO in final assay volume of 25 μL) was dispensed, followed by the addition of 12.5 μL of 1× assay buffer (50 mM Hepes 7.0 and 0.005% Tween20 (Sigma, Cat #P8341; low peroxide grade)) containing 2 nM of recombinant IL4I1 (R&D Systems, Cat #5684-AO-020). Plates were placed in an ambient temperature humidified chamber for a four-hour pre-incubation with compound. Subsequently, each reaction was initiated by the addition of 12.5 μL 1× assay buffer containing 2 mM of each aromatic amino acids (Phe/Tyr/Trp), 0.1 mM Amplex Red and 2 U/mL of HRP. The final reaction in each well of 25 μL consists of 1 nM of IL4I1, 1 mM of each residue (Phe, Tyr and Trp), 0.05 mM Amplex Red and 1 U/mL of HRP. It should be noted that the concentrations of Amplex Red and HRP used here are in excess such that the conversion of H2O2 to Resorufin product occurs instantaneously and non-rate limiting. Reactions were allowed to proceed for 120 minutes followed by fluorescence readout on a Spectramax with the following set parameters: 544 nm excitation/590 nm emission, 570 nm cutoff (EnVision is an alternative reader). Dose-response curves were generated by plotting percent effect (% inhibition; Y-axis) vs. Log10 compound concentrations (X-axis). EC50 values were calculated using a non-linear regression, four-parameters sigmoidal dose-response model and are shown in Table 16.

EC50 [µM] | Compound
0.072 | CC(C#N)n1cc(C(=O)NCc2cc(-c3ccncc3)no2)nn1 (single isomer, unassigned) [Example 286, 1-(1-cyanoethyl)-N-((3-(pyridin-4-yl)isoxazol-5-yl)methyl)-1H-1,2,3-triazole-4-carboxamide]
0.175 | Cc1ccc(-n2cc(C(=O)NCc3ccc(-n4ccnn4)nn3)nn2)c(C)n1 (single isomer, unassigned) [Example 345, N-((6-(1H-1,2,3-triazol-1-yl)pyridazin-3-yl)methyl)-1-(2,6-dimethylpyridin-3-yl)-1H-1,2,3-triazole-4-carboxamide]
0.88 | CC(NC(=O)c1cn(CC(F)F)nn1)c1ccc(-c2ccccc2)nn1 (single isomer, unassigned) [Example 348, 1-(2,2-difluoroethyl)-N-(1-(6-phenylpyridazin-3-yl)ethyl)-1H-1,2,3-triazole-4-carboxamide]
0.014 | CC(NC(=O)c1cn(CC(F)F)nn1)c1ccc(-c2ccccc2)nn1 (single isomer, unassigned) [Example 349, 1-(2,2-difluoroethyl)-N-(1-(6-phenylpyridazin-3-yl)ethyl)-1H-1,2,3-triazole-4-carboxamide]
0.325 | O=C(NCc1nnc(-c2ccccc2)s1)c1cn([C@@H]2COC[C@H]2CO)nn1 (stereo in doubt) [Example 147, 1-[(3S,4R)-4-(hydroxymethyl)oxolan-3-yl]-N-[(5-phenyl-1,3,4-thiadiazol-2-yl)methyl]-1H-1,2,3-triazole-4-carboxamide]
0.015 | Cc1ccc(-n2cc(C(=O)NCc3nnc(-c4ccccc4)s3)nn2)c(C)n1 [Example 1, 1-(2,6-dimethylpyridin-3-yl)-N-((5-phenyl-1,3,4-thiadiazol-2-yl)methyl)-1H-1,2,3-triazole-4-carboxamide]
0.009 | CC(O)c1cc(C(=O)NCc2nnc(-c3ccccc3)s2)no1 (stereo not drawn) [Example 3, 5-(1-hydroxyethyl)-N-[(5-phenyl-1,3,4-thiadiazol-2-yl)methyl]isoxazole-3-carboxamide]
0.069 | O=C(NCc1nnc(-c2ccccc2)s1)c1cc(CO)n[nH]1 [Example 4, 3-(hydroxymethyl)-N-((5-phenyl-1,3,4-thiadiazol-2-yl)methyl)-1H-pyrazole-5-carboxamide]
0.062 | O=C(NCc1nnc(-c2ccccc2)s1)c1cc2c(s1)CCC2 [Example 6, N-[(5-phenyl-1,3,4-thiadiazol-2-yl)methyl]-5,6-dihydro-4H-cyclopenta[b]thiophene-2-carboxamide]
0.008 | CC(C)Cc1cc(C(=O)NCc2nnc(-c3ccccc3)s2)no1 [Example 7, 5-isobutyl-N-[(5-phenyl-1,3,4-thiadiazol-2-yl)methyl]isoxazole-3-carboxamide]
0.09 | Cc1ccc(C(=O)NCc2nnc(-c3ccccc3)s2)s1 [Example 12, 5-methyl-N-[(5-phenyl-1,3,4-thiadiazol-2-yl)methyl]thiophene-2-carboxamide]
0.341 | Cc1cccn2cc(C(=O)NCc3nnc(-c4ccccc4)s3)nc12 [Example 13, 8-methyl-N-((5-phenyl-1,3,4-thiadiazol-2-yl)methyl)imidazo[1,2-a]pyridine-2-carboxamide]
0.153 | Cc1ccsc1C(=O)NCc1nnc(-c2ccccc2)s1 [Example 15, 3-methyl-N-[(5-phenyl-1,3,4-thiadiazol-2-yl)methyl]thiophene-2-carboxamide]
0.084 | O=C(NCc1nnc(-c2ccccc2)s1)c1csc(Cc2ccccc2)n1 [Example 16, 2-benzyl-N-((5-phenyl-1,3,4-thiadiazol-2-yl)methyl)thiazole-4-carboxamide]
0.04 | CCn1ccc(C(=O)NCc2nnc(-c3ccccc3)s2)c1 [Example 18, 1-ethyl-N-[(5-phenyl-1,3,4-thiadiazol-2-yl)methyl]pyrrole-3-carboxamide]
0.018 | Cn1cc(C(=O)NCc2nnc(-c3ccccc3)s2)nn1 [Example 19, 1-methyl-N-[(5-phenyl-1,3,4-thiadiazol-2-yl)methyl]triazole-4-carboxamide]

Continued, molecule first:

Compound | EC50 [µM]
CC(C#N)n1cc(C(=O)NCc2cc(-c3ccncc3)no2)nn1 (single isomer, unassigned) [Example 285, 1-(1-cyanoethyl)-N-((3-(pyridin-4-yl)isoxazol-5-yl)methyl)-1H-1,2,3-triazole-4-carboxamide] | 0.184
CC(C(N)=O)n1cc(C(=O)NCc2nnc(-c3ccccc3)s2)nn1 (single isomer, unassigned) [Example 318, 1-(1-amino-1-oxopropan-2-yl)-N-((5-phenyl-1,3,4-thiadiazol-2-yl)methyl)-1H-1,2,3-triazole-4-carboxamide] | 0.209
CC(C(N)=O)n1cc(C(=O)NCc2nnc(-c3ccccc3)s2)nn1 (single isomer, unassigned) [Example 319, 1-(1-amino-1-oxopropan-2-yl)-N-((5-phenyl-1,3,4-thiadiazol-2-yl)methyl)-1H-1,2,3-triazole-4-carboxamide] | 0.008
CC(O)c1cc(C(=O)NCc2nnc(-c3ccccc3)s2)on1 (single isomer, unassigned) [Example 329, 3-(1-hydroxyethyl)-N-((5-phenyl-1,3,4-thiadiazol-2-yl)methyl)isoxazole-5-carboxamide] | 0.149
CC(O)c1cc(C(=O)NCc2nnc(-c3ccccc3)s2)on1 (single isomer, unassigned) [Example 330, 3-(1-hydroxyethyl)-N-((5-phenyl-1,3,4-thiadiazol-2-yl)methyl)isoxazole-5-carboxamide] | 0.069
Cc1ccc(-n2cc(C(=O)NCc3ccc(-n4nccn4)nn3)nn2)c(C)n1 (single isomer, unassigned) [Example 344, N-((6-(2H-1,2,3-triazol-2-yl)pyridazin-3-yl)methyl)-1-(2,6-dimethylpyridin-3-yl)-1H-1,2,3-triazole-4-carboxamide] | 0.067
CC(C)c1cc(C(=O)NCc2nnc(-c3ccccc3)s2)n[nH]1 [Example 2, 5-isopropyl-N-[(5-phenyl-1,3,4-thiadiazol-2-yl)methyl]-1H-pyrazole-3-carboxamide] | 0.197
O=C(NCc1nnc(-c2ccccc2)s1)c1cn([C@H]2CO[C@H]3[C@@H]2OC[C@H]3O)nn1 [Example 5, 1-[(3S,3aR,6R,6aR)-6-hydroxy-2,3,3a,5,6,6a-hexahydrofuro[3,2-b]furan-3-yl]-N-[(5-phenyl-1,3,4-thiadiazol-2-yl)methyl]triazole-4-carboxamide] | 0.164
CCOc1ccsc1C(=O)NCc1nnc(-c2ccccc2)s1 [Example 8, 3-ethoxy-N-[(5-phenyl-1,3,4-thiadiazol-2-yl)methyl]thiophene-2-carboxamide] | 0.003
CC(C)(C)c1cc(C(=O)NCc2nnc(-c3ccccc3)s2)[nH]n1 [Example 9, 3-(tert-butyl)-N-((5-phenyl-1,3,4-thiadiazol-2-yl)methyl)-1H-pyrazole-5-carboxamide] | 0.48
Cc1csc(C(=O)NCc2nnc(-c3ccccc3)s2)c1 [Example 10, 4-methyl-N-[(5-phenyl-1,3,4-thiadiazol-2-yl)methyl]thiophene-2-carboxamide] | 0.01
O=C(NCc1nnc(-c2ccccc2)s1)c1c[nH]c(C2CC2)n1 [Example 11, 2-cyclopropyl-N-((5-phenyl-1,3,4-thiadiazol-2-yl)methyl)-1H-imidazole-4-carboxamide] | 0.265
Cn1ccc(C(=O)NCc2nnc(-c3ccccc3)s2)n1 [Example 14, 1-methyl-N-[(5-phenyl-1,3,4-thiadiazol-2-yl)methyl]pyrazole-3-carboxamide] | 0.291
Cc1ccc(C(=O)NCc2nnc(-c3ccccc3)s2)[nH]1 [Example 17, 5-methyl-N-[(5-phenyl-1,3,4-thiadiazol-2-yl)methyl]-1H-pyrrole-2-carboxamide] | 0.474
